Values quoted from earlier work, collected in patent publication US20090325807A1, “Method of Improving Plant Growth” (Bayer Cropscience AG, priority 2004, published 2009).

System: cucumis melo L.
Conditions: in the absence of insects

O=[N+]([O-])NC1=NCCN1Cc1ccc(Cl)nc1 [imidacloprid, Imidacloprid]
growth effect: no growth effect
